Results taken from the NIST ThermoML archive (doi:10.1021/je800110r).
Where “and” joins values, the source holds several entries; their conditions need not be identical. Identical values can stand only once. ± gives the expanded uncertainty stated by the source.

Details: 283.14 K, Liquid, Vibrating tube method

CCCCCCCCCC [decane]
mass density (322 kPa): 737.5 ± 2 kg/m3
mass density (338 kPa): 737.7 ± 2 kg/m3
mass density (385 kPa): 737.6 ± 2 kg/m3
mass density (479 kPa): 737.8 ± 2 kg/m3
mass density (514 kPa): 737.8 ± 2 kg/m3
mass density (551 kPa): 737.8 ± 2 kg/m3
mass density (574 kPa): 737.8 ± 2 kg/m3
mass density (589 kPa): 737.8 ± 2 kg/m3
mass density (615 kPa): 737.9 ± 2 kg/m3
mass density (633 kPa): 737.9 ± 2 kg/m3
mass density (651 kPa): 737.9 ± 2 kg/m3
mass density (665 kPa): 737.9 ± 2 kg/m3
mass density (683 kPa): 737.8 ± 2 kg/m3
mass density (700 kPa): 737.8 ± 2 kg/m3
mass density (721 kPa): 737.8 ± 2 kg/m3
mass density (740 kPa): 737.9 ± 2 kg/m3
mass density (763 kPa): 738 ± 2 kg/m3
mass density (783 kPa): 737.9 ± 2 kg/m3
mass density (808 kPa): 738 ± 2 kg/m3
mass density (833 kPa): 738 ± 2 kg/m3
mass density (857 kPa): 738 ± 2 kg/m3
mass density (877 kPa): 738 ± 2 kg/m3
mass density (899 kPa): 738 ± 2 kg/m3
mass density (931 kPa): 738.1 ± 2 kg/m3
mass density (966 kPa): 738.2 ± 2 kg/m3
mass density (995 kPa): 738.1 ± 2 kg/m3
mass density (1025 kPa): 738.1 ± 2 kg/m3
mass density (1066 kPa): 738.2 ± 2 kg/m3
mass density (1103 kPa): 738.2 ± 2 kg/m3
mass density (1133 kPa): 738.1 ± 2 kg/m3
mass density (1173 kPa): 738.3 ± 2 kg/m3
mass density (1217 kPa): 738.3 ± 2 kg/m3
mass density (1247 kPa): 738.2 ± 2 kg/m3
mass density (1299 kPa): 738.3 ± 2 kg/m3
mass density (1359 kPa): 738.3 ± 2 kg/m3
mass density (1404 kPa): 738.5 ± 2 kg/m3
mass density (1536 kPa): 738.5 ± 2 kg/m3
mass density (2661 kPa): 739.4 ± 2 kg/m3
mass density (2677 kPa): 739.3 ± 2 kg/m3
mass density (2694 kPa): 739.3 ± 2 kg/m3
mass density (2848 kPa): 739.5 ± 2 kg/m3
mass density (2888 kPa): 739.4 ± 2 kg/m3
mass density (2910 kPa): 739.5 ± 2 kg/m3
mass density (2926 kPa): 739.5 ± 2 kg/m3
mass density (2942 kPa): 739.5 ± 2 kg/m3
mass density (2959 kPa): 739.6 ± 2 kg/m3
mass density (2987 kPa): 739.6 ± 2 kg/m3
mass density (3024 kPa): 739.7 ± 2 kg/m3
mass density (3042 kPa): 739.6 ± 2 kg/m3
mass density (3053 kPa): 739.6 ± 2 kg/m3
mass density (3064 kPa): 739.7 ± 2 kg/m3
mass density (3084 kPa): 739.6 ± 2 kg/m3
mass density (3192 kPa): 739.6 ± 2 kg/m3
mass density (3239 kPa): 739.7 ± 2 kg/m3
mass density (3249 kPa): 739.8 ± 2 kg/m3
mass density (3261 kPa): 739.8 ± 2 kg/m3
mass density (3321 kPa): 739.8 ± 2 kg/m3
mass density (3332 kPa): 739.8 ± 2 kg/m3
mass density (3814 kPa): 740.2 ± 2 kg/m3
mass density (3824 kPa): 740.1 ± 2 kg/m3
mass density (3837 kPa): 740.2 ± 2 kg/m3
mass density (3847 kPa): 740.3 ± 2 kg/m3
mass density (3862 kPa): 740.2 ± 2 kg/m3
mass density (3876 kPa): 740.1 ± 2 kg/m3
mass density (3887 kPa): 740.3 ± 2 kg/m3
mass density (4382 kPa): 740.6 ± 2 kg/m3
mass density (4686 kPa): 740.8 ± 2 kg/m3
mass density (4709 kPa): 740.9 ± 2 kg/m3
mass density (4730 kPa): 740.8 ± 2 kg/m3
mass density (4749 kPa): 740.9 ± 2 kg/m3
mass density (4854 kPa): 741 ± 2 kg/m3
mass density (4879 kPa): 741 ± 2 kg/m3
mass density (4901 kPa): 741 ± 2 kg/m3
mass density (4924 kPa): 740.9 ± 2 kg/m3
mass density (4947 kPa): 741 ± 2 kg/m3
mass density (4968 kPa): 741.1 ± 2 kg/m3
mass density (4992 kPa): 741.1 ± 2 kg/m3
mass density (5006 kPa): 741.1 ± 2 kg/m3
mass density (5028 kPa): 741 ± 2 kg/m3
mass density (5042 kPa): 741 ± 2 kg/m3
mass density (5058 kPa): 741.1 ± 2 kg/m3
mass density (5077 kPa): 741.1 ± 2 kg/m3
mass density (5094 kPa): 741.2 ± 2 kg/m3
mass density (5117 kPa): 741.1 ± 2 kg/m3
mass density (5136 kPa): 741 ± 2 kg/m3
mass density (5156 kPa): 741.1 ± 2 kg/m3
mass density (5176 kPa): 741.3 ± 2 kg/m3
mass density (5205 kPa): 741.3 ± 2 kg/m3
mass density (5223 kPa): 741.2 ± 2 kg/m3
mass density (5244 kPa): 741.2 ± 2 kg/m3
mass density (5265 kPa): 741.2 ± 2 kg/m3
mass density (5316 kPa): 741.3 ± 2 kg/m3
mass density (5598 kPa): 741.5 ± 2 kg/m3
mass density (5751 kPa): 741.6 ± 2 kg/m3
mass density (5767 kPa): 741.6 ± 2 kg/m3
mass density (5776 kPa): 741.6 ± 2 kg/m3
mass density (5781 kPa): 741.6 ± 2 kg/m3
mass density (5783 kPa): 741.6 ± 2 kg/m3
mass density (5784 kPa): 741.5 ± 2 kg/m3 and 741.7 ± 2 kg/m3
mass density (5793 kPa): 741.7 ± 2 kg/m3
mass density (5798 kPa): 741.6 ± 2 kg/m3
mass density (5802 kPa): 741.6 ± 2 kg/m3
mass density (5814 kPa): 741.7 ± 2 kg/m3
mass density (5816 kPa): 741.6 ± 2 kg/m3
mass density (5823 kPa): 741.7 ± 2 kg/m3
mass density (5833 kPa): 741.6 ± 2 kg/m3
mass density (5852 kPa): 741.7 ± 2 kg/m3
mass density (5869 kPa): 741.7 ± 2 kg/m3
mass density (5881 kPa): 741.7 ± 2 kg/m3
mass density (5888 kPa): 741.6 ± 2 kg/m3
mass density (5891 kPa): 741.7 ± 2 kg/m3
mass density (5895 kPa): 741.8 ± 2 kg/m3
mass density (5898 kPa): 741.7 ± 2 kg/m3
mass density (5902 kPa): 741.8 ± 2 kg/m3
mass density (5907 kPa): 741.7 ± 2 kg/m3
mass density (5910 kPa): 741.7 ± 2 kg/m3
mass density (5914 kPa): 741.7 ± 2 kg/m3
mass density (5929 kPa): 741.7 ± 2 kg/m3
mass density (6176 kPa): 741.9 ± 2 kg/m3
mass density (6202 kPa): 741.9 ± 2 kg/m3
mass density (6218 kPa): 741.8 ± 2 kg/m3
mass density (6237 kPa): 741.9 ± 2 kg/m3
mass density (6251 kPa): 741.8 ± 2 kg/m3
mass density (6269 kPa): 741.9 ± 2 kg/m3
mass density (6284 kPa): 742 ± 2 kg/m3
mass density (6304 kPa): 741.9 ± 2 kg/m3
mass density (6319 kPa): 742 ± 2 kg/m3
mass density (6335 kPa): 742 ± 2 kg/m3
mass density (6350 kPa): 741.9 ± 2 kg/m3
mass density (6373 kPa): 742.1 ± 2 kg/m3
mass density (6391 kPa): 742.1 ± 2 kg/m3
mass density (6409 kPa): 742 ± 2 kg/m3
mass density (6431 kPa): 742 ± 2 kg/m3
mass density (6452 kPa): 742 ± 2 kg/m3
mass density (6465 kPa): 742.1 ± 2 kg/m3
mass density (6481 kPa): 742 ± 2 kg/m3
